Patent US11242337B2, “Compounds useful for treating gastrointestinal tract disorders” (Ardelyx, Inc., priority 2017, dated 2022)

How the values were obtained:
NHE3 = molecular target: T1, NHE3 (Homo sapiens, UniProt P48764); experiment: Cell-based assay of NHE-3 activity (persistent inhibition), human; conditions: human Persistence, 60 min incubation then washout
T1 construct: expressed in transfected cells
T1 sequence (P48764 26-834): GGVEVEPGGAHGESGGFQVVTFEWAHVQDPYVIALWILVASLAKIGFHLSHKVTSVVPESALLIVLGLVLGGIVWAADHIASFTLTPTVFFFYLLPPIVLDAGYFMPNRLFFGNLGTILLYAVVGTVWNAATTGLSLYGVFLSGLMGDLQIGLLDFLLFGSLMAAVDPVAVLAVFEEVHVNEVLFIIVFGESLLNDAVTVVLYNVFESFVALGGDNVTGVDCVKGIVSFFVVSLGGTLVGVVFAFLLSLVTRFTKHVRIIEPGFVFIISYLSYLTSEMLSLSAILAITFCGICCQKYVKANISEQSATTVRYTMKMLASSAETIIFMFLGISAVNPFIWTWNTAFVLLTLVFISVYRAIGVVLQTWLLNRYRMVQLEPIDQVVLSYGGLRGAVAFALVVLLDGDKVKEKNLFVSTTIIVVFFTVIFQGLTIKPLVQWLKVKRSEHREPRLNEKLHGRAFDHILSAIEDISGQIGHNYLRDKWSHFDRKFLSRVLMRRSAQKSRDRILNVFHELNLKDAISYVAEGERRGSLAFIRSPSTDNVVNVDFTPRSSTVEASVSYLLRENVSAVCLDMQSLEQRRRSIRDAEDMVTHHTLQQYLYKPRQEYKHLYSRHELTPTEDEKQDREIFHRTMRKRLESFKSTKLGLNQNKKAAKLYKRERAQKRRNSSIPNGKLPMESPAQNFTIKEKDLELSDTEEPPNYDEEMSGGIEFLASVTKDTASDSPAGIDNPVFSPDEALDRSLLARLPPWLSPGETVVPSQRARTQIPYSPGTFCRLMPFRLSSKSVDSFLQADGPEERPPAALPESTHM
T1 sequence (Q99653 2-195 partner limits assumed): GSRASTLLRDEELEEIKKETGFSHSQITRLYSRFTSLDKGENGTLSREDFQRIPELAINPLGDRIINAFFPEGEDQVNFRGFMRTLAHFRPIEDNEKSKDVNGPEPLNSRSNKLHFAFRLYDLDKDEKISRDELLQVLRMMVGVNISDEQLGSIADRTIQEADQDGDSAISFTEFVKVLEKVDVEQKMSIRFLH
Procedure, shortened: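 Persistent inhibition: compound (0-30 μM, 60 min, RT, NaCl-HEPES pH 7.4) removed before assay. Human NHE3/NHERF2 PS120 cells were then BCECF-loaded during NH4Cl pulse (30 min, 37 °C), acidified in Na+-free buffer, and Na+ added 10 min after washout; antiport measured as initial fluorescence-ratio change per minute.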

[1] = test system: human ileum monolayer culture; experiment: Sustained inhibition of apical acid secretion in human organoid monolayer cell cultures (ileum); assay type: cell-based; conditions: Homo sapiens, 48 h; 1 μM apical, dosed day 6, apical media pH day 8, vs DMSO
Procedure, shortened: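 Human ileum organoid-derived Transwell monolayers, differentiated with ENRA from day 3, received 1 μM compound apically on day 6 (DMSO vehicle, duplicate wells). Apical medium pH was measured by electrode on day 8 as a readout of sustained NHE3-mediated proton secretion inhibition.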

In the case of `Cc1cc(S(=O)(=O)N[C@H]2CCN(CCOCCNC(=O)NCCCCNC(=O)NCCOCCN3CC[C@H](NS(=O)(=O)c4ccc(O[C@H]5c6cc(Cl)cc(Cl)c6C[C@@H]5N(C)C)c(C)c4)C3=O)C2=O)ccc1O[C@H]1c2cc(Cl)cc(Cl)c2C[C@@H]1N(C)C` [Example 91, 1-(2-[2-[(3S)-3-[(4-[[(1S,2S)-4,6-Dichloro-2-(dimethylamino)-2,3-dihydro-1H-inden-1-yl]oxy]-3-methylbenzene)sulfonamido]-2-oxopyrrolidin-1-yl]ethoxy]ethyl)-3-(4-[[(2-[2-[(3S)-3-[(4-[[(1S,2S)-4,6-dichloro-2-(dimethylamino)-2,3-dihydro-1H-inden-1-yl]oxy]-3-methylbenzene)sulfonamido]-2-oxopyrrolidin-1-yl]ethoxy]ethyl)carbamoyl]amino]butyl)urea], the “% inhibition” value (NHE3) is reported as “C (>70%)”, the pIC50 (NHE3) is reported as “C (NHE3 pIC50 > 7)” and the inhibition at 1 µM [1] is reported as 50 to 70%.
`O=C(NCCCCNC(=O)NCCOCCN1CC[C@@H](NS(=O)(=O)c2ccc(O[C@H]3c4cc(Cl)cc(Cl)c4C[C@@H]3N3CCNCC3)c(F)c2)C1)NCCOCCN1CC[C@@H](NS(=O)(=O)c2ccc(O[C@H]3c4cc(Cl)cc(Cl)c4C[C@@H]3N3CCNCC3)c(F)c2)C1` [Example 105, 4-([(1S,2S)-4,6-Dichloro-2-(piperazin-1-yl)-2,3-dihydro-1H-inden-1-yl]oxy)-N—[(R)-1-(20-[(R)-3-([4-([(1S2S)-4,6-dichloro-2-(piperazin-1-yl)-2,3-dihydro-1H-inden-1-yl]oxy)-3-fluorophenyl]sulfonamido)pyrrolidin-1-yl]-7,14-dioxo-3,18-dioxa-6,8,13,15-tetraazaicosyl)pyrrolidin-3-yl]-3-fluorobenzenesulfonamide; tetra(trifluoroacetate)] was tested, and the “% inhibition” value (NHE3) was “C (>70%)”, the IC50 (NHE3) was < 100 nM and the inhibition at 1 µM [1] was > 70%.
In the case of `O=C(NCCCCNC(=O)NCCOCCN1CC[C@H](NS(=O)(=O)c2ccc(O[C@H]3c4cc(Cl)cc(Cl)c4C[C@@H]3N3CCNCC3)c(F)c2)C1)NCCOCCN1CC[C@H](NS(=O)(=O)c2ccc(O[C@H]3c4cc(Cl)cc(Cl)c4C[C@@H]3N3CCNCC3)c(F)c2)C1` [Example 106, 4-([(1S,2S)-4,6-Dichloro-2-(piperazin-1-yl)-2,3-dihydro-1H-inden-1-yl]oxy)-N—[(S)-1-(20-[(S)-3-([4-([(1S,2S)-4,6-dichloro-2-(piperazin-1-yl)-2,3-dihydro-1H-inden-1-yl]oxy)-3-fluorophenyl]sulfonamido)pyrrolidin-1-yl]-7,14-dioxo-3,18-dioxa-6,8,13,15-tetraazaicosyl)pyrrolidin-3-yl]-3-fluorobenzenesulfonamide; tetra(trifluoroacetate)], the “% inhibition” value (NHE3) is reported as “C (>70%)” and the inhibition at 1 µM [1] is reported as > 70%.
With `N#Cc1cc(Cl)cc2c1C[C@H](N1CCNCC1)[C@H]2Oc1ccc(S(=O)(=O)N[C@H]2CCN(CCOCCNC(=O)NCCCCNC(=O)NCCOCCN3CC[C@H](NS(=O)(=O)c4ccc(O[C@H]5c6cc(Cl)cc(C#N)c6C[C@@H]5N5CCNCC5)cc4)C3)C2)cc1` [Example 107, 4-([(1S,2S)-6-Chloro-4-cyano-2-(piperazin-1-yl)-2,3-dihydro-1H-inden-1-yl]oxy)-N—[(S)-1-(20-[(S)-3-([4-([(1S,2S)-6-chloro-4-cyano-2-(piperazin-1-yl)-2,3-dihydro-1H-inden-1-yl]oxy)phenyl]sulfonamido)pyrrolidin-1-yl]-7,14-dioxo-3,18-dioxa-6,8,13,15-tetraazaicosyl)pyrrolidin-3-yl]benzenesulfonamide; tetra(trifluoroacetate)] the “% inhibition” value (NHE3) was “C (>70%)”, the pIC50 (NHE3) was “C (NHE3 pIC50 > 7)” and the inhibition at 1 µM [1] was > 70%.
In the case of `N#Cc1cc(Cl)cc2c1C[C@H](N1CCNCC1)[C@H]2Oc1ccc(S(=O)(=O)N[C@@H]2CCN(CCOCCNC(=O)NCCCCNC(=O)NCCOCCN3CC[C@@H](NS(=O)(=O)c4ccc(O[C@H]5c6cc(Cl)cc(C#N)c6C[C@@H]5N5CCNCC5)c(F)c4)C3)C2)cc1F` [Example 109, 4-([(1S,2S)-6-Chloro-4-cyano-2-(piperazin-1-yl)-2,3-dihydro-1H-inden-1-yl]oxy)-N—[(R)-1-(20-[(R)-3-[(4-([(1S,2S)-6-chloro-4-cyano-2-(piperazin-1-yl)-2,3-dihydro-1H-inden-1-yl]oxy)-3-fluorophenyl)sulfonamide)pyrrolidin-1-yl]-7,14-dioxo-3,18-dioxa-6,8,13,15-tetraazaicosyl)pyrrolidin-3-yl]-3-fluorobenzenesulfonamide; tetra(trifluoroacetate)], the “% inhibition” value (NHE3) is reported as “C (>70%)”, the pIC50 (NHE3) is reported as “C (NHE3 pIC50 > 7)” and the inhibition at 1 µM [1] is reported as > 70%.
`N#Cc1cc(Cl)cc2c1C[C@H](N1CCNCC1)[C@H]2Oc1ccc(S(=O)(=O)N[C@H]2CCN(CCOCCNC(=O)NCCCCNC(=O)NCCOCCN3CC[C@H](NS(=O)(=O)c4ccc(O[C@H]5c6cc(Cl)cc(C#N)c6C[C@@H]5N5CCNCC5)c(F)c4)C3)C2)cc1F` [Example 110, 4-([(1S,2S)-6-Chloro-4-cyano-2-(piperazin-1-yl)-2,3-dihydro-1H-inden-1-yl]oxy)-N—[(S)-1-(20-[(S)-3-[(4-([(1S,2S)-6-chloro-4-cyano-2-(piperazin-1-yl)-2,3-dihydro-1H-inden-1-yl]oxy)-3-fluorophenyl)sulfonamide)pyrrolidin-1-yl]-7,14-dioxo-3,18-dioxa-6,8,13,15-tetraazaicosyl)pyrrolidin-3-yl]-3-fluorobenzenesulfonamide; tetra(trifluoroacetate)] was tested, and the “% inhibition” value (NHE3) was “C (>70%)”, the pIC50 (NHE3) was “C (NHE3 pIC50 > 7)” and the inhibition at 1 µM [1] was > 70%.
For `N#Cc1cc(Cl)cc2c1C[C@H](N1CCNCC1)[C@H]2Oc1ccc(S(=O)(=O)NC2CCN(C(=O)CCCNC(=O)NCCCCNC(=O)NCCCC(=O)N3CCC(NS(=O)(=O)c4ccc(O[C@H]5c6cc(Cl)cc(C#N)c6C[C@@H]5N5CCNCC5)cc4)CC3)CC2)cc1` [Example 115], the “% inhibition” value (NHE3) was “C (>70%)”, the pIC50 (NHE3) was “C (NHE3 pIC50 > 7)” and the inhibition at 1 µM [1] was > 70%.
For `CN(C)[C@H]1CCCN([C@H]2Cc3c(C#N)cc(Cl)cc3[C@@H]2Oc2ccc(S(=O)(=O)NCCOCCOCCNC(=O)NCCCCNC(=O)NCCOCCOCCNS(=O)(=O)c3ccc(O[C@H]4c5cc(Cl)cc(C#N)c5C[C@@H]4N4CCC[C@H](N(C)C)C4)cc3)cc2)C1` [Example 122, 4-([(1S,2S)-6-Chloro-4-cyano-2-[(S)-3-(dimethylamino)piperidin-1-yl]-2,3-dihydro-1H-inden-1-yl]oxy)-N-[26-([4-([(1S,2S)-6-chloro-4-cyano-2-[(S)-3-(dimethylamino)piperidin-1-yl]-2,3-dihydro-1H-inden-1-yl]oxy)phenyl]sulfonamido)-10,17-dioxo-3,6,21,24-tetraoxa-9,11,16,18-tetraazahexacosyl]benzenesulfonamide], the “% inhibition” value (NHE3) was “C (>70%)”, the pIC50 (NHE3) was “C (NHE3 pIC50 > 7)” and the inhibition at 1 µM [1] was > 70%.
For `N#Cc1cc(Cl)cc2c1C[C@H](N1CCNCC1)[C@H]2Oc1ccc(S(=O)(=O)NC2CCN(CCOCCNC(=O)NCCCCNC(=O)NCCOCCN3CCC(NS(=O)(=O)c4ccc(O[C@H]5c6cc(Cl)cc(C#N)c6C[C@@H]5N5CCNCC5)cc4)CC3)CC2)cc1` [Example 123, 4-([(1S,2S)-6-Chloro-4-cyano-2-(piperazin-1-yl)-2,3-dihydro-1H-inden-1-yl]oxy)-N-[1-(20-[4-([4-([(1S,2S)-6-chloro-4-cyano-2-(piperazin-1-yl)-2,3-dihydro-1H-inden-1-yl]oxy)phenyl]sulfonamide]piperidin-1-yl)-7,14-dioxo-3,18-dioxa-6,8,13,15-tetraazaicosyl]piperidin-4-yl)benzenesulfonamide], the “% inhibition” value (NHE3) was “C (>70%)”, the pIC50 (NHE3) was “C (NHE3 pIC50 > 7)” and the inhibition at 1 µM [1] was > 70%.
`N#Cc1cc(Cl)cc2c1C[C@H](N1CCCNCC1)[C@H]2Oc1ccc(S(=O)(=O)N[C@H]2CCN(CCOCCNC(=O)NCCCCNC(=O)NCCOCCN3CC[C@H](NS(=O)(=O)c4ccc(O[C@H]5c6cc(Cl)cc(C#N)c6C[C@@H]5N5CCCNCC5)cc4)C3)C2)cc1` [Example 126, 4-([(1S,2S)-6-Chloro-4-cyano-2-(1,4-diazepan-1-yl)-2,3-dihydro-1H-inden-1-yl]oxy)-N—[(S)-1-(20-[(S)-3-([4-([(1S,2S)-6-chloro-4-cyano-2-(1,4-diazepan-1-yl)-2,3-dihydro-1H-inden-1-yl]oxy)phenyl]sulfonamido)pyrrolidin-1-yl]-7,14-dioxo-3,18-dioxa-6,8,13,15-tetraazaicosyl)pyrrolidin-3-yl]benzenesulfonamide] was tested, and the “% inhibition” value (NHE3) was “B (40-70%)”, the IC50 (NHE3) was < 100 nM and the inhibition at 1 µM [1] was < 50%.
